Measured values: patent US4370323A, “2-Cyanoaziridinyl-(1)-2-substituted-aziridinyl-(1)-methanes” (Boehringer Mannheim GmbH, priority 1976, dated 1983)

What was measured:
[1] = test system: leukocytes, lymphocytes, erythrocytes, antibody-forming spleen cells; conditions: intravenous; cited from earlier work
[2] = prior art compound, cited from earlier work
leucocyte number = assay: Alteration of the leucocyte number in rats; assay type: in vivo, female Sprague-Dawley rats; conditions: fourth day, ten rats; for response vs control in vivo at 50 mg/kg / response vs control in vivo at 200 mg/kg: Rattus norvegicus, Leucocyte, po, 96 h, read-out: proportion of the average leucocyte number of the test group to that of the control group; for proportion of the average leucocyte number of the test group to that of the control group: oral
Method: (a) Alteration of the leucocyte number
The active substance was dissolved in each case in 10 ml of a 1% methyl-hydroxyethyl cellulose solution per kg of body weight and orally applied by means of a neck tube to ten fasting female Sprague-Dawley rats in each case. On the fourth day, blood was taken retroorbitally and the leucocyte number was determined by means of a coult counter.

Candida albicans = assay: In vitro fungistatic effect; assay type: cell-based
Walker-Carcinoma 256 = assay: Cancerostatic effect: Walker-Carcinoma 256 transplanted in rats; assay type: in vivo, female Sprague-Dawley rats; conditions: for Tumor weight: three days prior to tumor application, day 7, average of 20 animals; for Difference (tumor weight): vs control
Method: (§1) Ready-to-be-transplanted tumors of various kinds were taken from freshly killed rats, comminuted coarsely and pulverized with addition of 8 ml of physiological sodium chloride solution. Female Sprague-Dawley rats weighing 80 to 100 g were used as test animals. The respective tumor cell suspension was applied subfacially to the animals in an amount of 0.5 ml per animal under sterile conditions in the neck area. On the seventh day after the transplantation the animals were killed, the tumors taken out and weighed. The substances according to the instant invention were in each case applied orally three days prior to the tumor application by means of a throat tube (in 10 ml 1% hydrous methylhydroxylethyl cellulose solution per kg of body weight).

[3] = Acute toxicity (LD50) in mice; conditions: mouse, in vivo, ip, single intraperitoneal administration
Method: (§2) These values are much higher than the pharmacologically effective dosages (0.5-50 mg/kg body weight).

Candida albicans-219 = assay: Resistance increase in case of Candida albicans infection in mice; assay type: in vivo, Candida albicans; female NMRI mice; conditions: 50 mg per kg oral, one hour after i.v. infection, after six days
Method: Female, adult NMRI mice weighing 25-30 g were infected with Candida albicans-219. A suspension of approximately 300,000 germs in 0.2 ml physiological sodium chloride per animal was given intravenously. One hour later, 50 mg of the compound of Example 1, per kg body weight, were applied orally by way of neck tube, dissolved in 10 ml 0.1% methyl-hydroxyethyl cellulose. The control group received the same solution without active material. After six days, 18 of the 30 animals of the control group were dead, but only 3 of the 30 animals of the test group, which corresponds to a survival rate of 90% and makes clearly evident the resistance-increasing effect.

DC-Carcino-Sarcoma = assay: Cancerostatic effect: DC-Carcino-Sarcoma transplanted in rats; assay type: in vivo, female Sprague-Dawley rats; conditions: for Tumor weight: three days prior to tumor application, day 7, average of 20 animals; for Difference (tumor weight): vs control
Method: as §1

[4] = Acute toxicity (LD50) in rats; conditions: rat, in vivo
Method: as §2

| SMILES | response vs control in vivo at 50 mg/kg (leucocyte number; 50 mg per kg body weight) [%] | response vs control in vivo at 200 mg/kg (leucocyte number; 200 mg per kg body weight) [%] | further results |
| --- | --- | --- | --- |
| N#CC1CN1C(N)=O (stereo not drawn) [1-carboxamido-2-cyanoaziridine] |  |  | antibody-forming spleen cells [1]: increase of the antibody-forming spleen cells; cytostatic action [1]: cytostatic action; number of erythrocytes [1]: substantially unchanged; number of leukocytes and lymphocytes [1]: marked increase; keeping time in buffered aqueous solution ([2]; buffered aqueous solution): can only be kept for a short time; acid stability [2]: acid lability |
| CC(C)C(N1CC1C#N)N1CC1C(N)=O (stereo not drawn) [27 a] | 119 | 166 |  |
| CCC(N1CC1C#N)N1CC1C(N)=O (stereo not drawn) [27 d] | 140 | 178 |  |
| CCCC(N1CC1C#N)N1CC1C(N)=O (stereo not drawn) [27 e] | 130 | 136 |  |
| N#CC1CN1C1(N2CC2C(N)=O)CCOCC1 (stereo not drawn) [28 a] | 109 | 130 |  |
| N#CC1CN1C(C1CCCCC1)N1CC1C(N)=O (stereo not drawn) [28 b] | 120 | 155 |  |
| N#CC1CN1C(c1ccc(Cl)cc1)N1CC1C(N)=O (stereo not drawn) [29 b] | 100 | 140 |  |
| N#CC1CN1C(c1ccco1)N1CC1C(N)=O (stereo not drawn) [29 d] | 100 | 130 |  |
| N#CC1CN1C(c1cccs1)N1CC1C(N)=O (stereo not drawn) [29 e] | 115 | 150 |  |
| N#CC1CN1C(c1cccc([N+](=O)[O-])c1)N1CC1C(N)=O (stereo not drawn) [29 f] | 109 | 126 |  |
| Cc1ccccc1C(N1CC1C#N)N1CC1C(N)=O (stereo not drawn) [30 a] | 140 | 134 |  |
| COc1cccc(C(N2CC2C#N)N2CC2C(N)=O)c1 (stereo not drawn) [30 b] | 122 | 131 |  |
| N#CC1CN1C(c1ccc(O)cc1)N1CC1C(N)=O (stereo not drawn) [30 c] | 170 | 221 |  |
| COC(=O)c1ccc(C(N2CC2C#N)N2CC2C(N)=O)cc1 (stereo not drawn) [30 d] | 108 | 150 |  |
| CC(C)(N1CC1C#N)N1CC1C(N)=O (stereo not drawn) [Example 1, 2-[2-Cyanoaziridinyl-(1)]-2-[2-carbamoylaziridinyl-(1)]-propane] |  |  | fungistatic effect (Candida albicans): no fungistatic effect; Tumor weight (Walker-Carcinoma 256; 5.0 mg/kg oral): 11.8 g; Difference (tumor weight) (Walker-Carcinoma 256; 5.0 mg/kg oral): -27.1%; Tumor weight (Walker-Carcinoma 256; 50.0 mg/kg oral): 12.1 g; Difference (tumor weight) (Walker-Carcinoma 256; 50.0 mg/kg oral): -25.4%; Tumor weight (Walker-Carcinoma 256; 100.0 mg/kg oral): 15.6 g; proportion of the average leucocyte number of the test group to that of the control group (leucocyte number; 50 mg per kg body weight): 1,70; proportion of the average leucocyte number of the test group to that of the control group (leucocyte number; 200 mg per kg body weight): 1,55; LD50 [3]: 2270 mg/kg; survival rate (Candida albicans-219): 90%; dead animals (Candida albicans-219; control 18 of 30): 3 of the 30 animals; Tumor weight (DC-Carcino-Sarcoma; 150 mg/kg oral): 5.9 g; Difference (tumor weight) (DC-Carcino-Sarcoma; 150 mg/kg oral): -67.0%; Tumor weight (DC-Carcino-Sarcoma; 300 mg/kg oral): 9.8 g; Difference (tumor weight) (DC-Carcino-Sarcoma; 300 mg/kg oral): -45.0%; LD50 ([4]; ip, single intraperitoneal administration, read-out: acute toxicity (LD50)): 2550 mg/kg; LD50 ([4]; oral administration, read-out: LD50): 3100 mg/kg |
| CC(C)(N1CC1C#N)N1CC1C(N)=O (stereo not drawn) [Example 3, 2-[2-Cyanoaziridinyl-(1)]-2-[2-carbamoylaziridinyl-(1)]-propane] |  |  | proportion of the average leucocyte number of the test group to that of the control group (leucocyte number; 50 mg per kg body weight): 1,42; proportion of the average leucocyte number of the test group to that of the control group (leucocyte number; 200 mg per kg body weight): 1,82 |
| CCOC(=O)C(C)(N1CC1C#N)N1CC1C(N)=O (stereo not drawn) [Example 6, Ethyl α-[2-cyanoaziridinyl-(1)]-α-[2-carbamoylaziridinyl-(1)]-propionate] | 115 | 165 |  |
| CC(C1CC1)(N1CC1C#N)N1CC1C(N)=O (stereo not drawn) [Example 9, 1-[2-cyanoaziridinyl-(1)]-1-[2-carbamoylaziridinyl-(1)]-1-cyclopropylethane] | 132 | 182 |  |
| N#CC1CN1C1(N2CC2C(N)=O)CCCCC1 (stereo not drawn) [Example 10, 1-[2-Cyanoaziridinyl-(1)]-1-[2-carbamoylaziridinyl-(1)]cyclohexane] |  |  | Tumor weight (Walker-Carcinoma 256; 10.0 mg/kg oral): 7.9 g; Tumor weight (Walker-Carcinoma 256; 50.0 mg/kg oral): 5.0 g; Difference (tumor weight) (Walker-Carcinoma 256; 50.0 mg/kg oral): -41.7%; Tumor weight (Walker-Carcinoma 256; 100.0 mg/kg oral): 4.5 g; Difference (tumor weight) (Walker-Carcinoma 256; 100.0 mg/kg oral): -46.9%; proportion of the average leucocyte number of the test group to that of the control group (leucocyte number; 50 mg per kg body weight): 0,92; proportion of the average leucocyte number of the test group to that of the control group (leucocyte number; 200 mg per kg body weight): 2,06; Tumor weight (DC-Carcino-Sarcoma; 50 mg/kg oral): 11.0 g; Difference (tumor weight) (DC-Carcino-Sarcoma; 50 mg/kg oral): -38.5%; Tumor weight (DC-Carcino-Sarcoma; 100 mg/kg oral): 10.9 g; Difference (tumor weight) (DC-Carcino-Sarcoma; 100 mg/kg oral): -40.0% |
| N#CC1CN1C1(N2CC2C(N)=O)CCCCC1 (stereo not drawn) [Example 16, 1-[2-Cyanoaziridinyl-(1)]-1-[2-carbamoylaziridinyl-(1)]-cyclohexane] |  |  | proportion of the average leucocyte number of the test group to that of the control group (leucocyte number; 50 mg per kg body weight): 1,30; proportion of the average leucocyte number of the test group to that of the control group (leucocyte number; 200 mg per kg body weight): 1,50 |
| CC1CCC(N2CC2C#N)(N2CC2C(N)=O)CC1 (stereo not drawn) [Example 19, 1-[2-Cyanoaziridinyl-(1)]-1-[2-carbamoylaziridinyl-(1)]-4-methylcyclohexane] | 100 | 136 |  |
| COC(=O)C1CCC(N2CC2C#N)(N2CC2C(N)=O)CC1 (stereo not drawn) [Example 20, 1-[2-Cyanoaziridinyl-(1)]-1-[2-carbamoylaziridinyl-(1)]-4-methoxycarbonylcyclohexane] | 123 | 151 |  |
| N#CC1CN1C1CCCC(N2CC2C#N)(N2CC2C(N)=O)C1 (stereo not drawn) [Example 21, 1,3-Bis-[2-cyanoaziridinyl-(1)]-1-[2-carbamoylaziridinyl-(1)]-cyclohexane] | 111 | 130 |  |
| N#CC1CN1C(c1ccccc1)(c1ccccc1)N1CC1C(N)=O (stereo not drawn) [Example 26, α-[2-Cyanoaziridinyl-(1)]-α-[2-carbamoylaziridinyl-(1)]-diphenylmethane] | 125 | 120 |  |
| CC(N1CC1C#N)N1CC1C(N)=O (stereo not drawn) [Example 27, 1-[2-Cyanoaziridinyl-(1)]-1-[2-carbamoylaziridinyl-(1)]-ethane] | 117 | 153 |  |
| N#CC1CN1C1(N2CC2C(N)=O)CCCSC1 (stereo not drawn) [Example 28, 3-[2-Cyanoaziridinyl-(1)]-3-[2-carbamoylaziridinyl-(1)]-tetrahydrothiapyran] | 126 | 180 |  |
| N#CC1CN1C(C=Cc1ccccc1)N1CC1C(N)=O (stereo not drawn) [Example 31, 3-[2-cyanoaziridinyl-(1)]-3-[2-carbamoylaziridinyl-(1)]-1-phenylprop-1-ene] | 113 | 141 |  |
| N#CC1CN1C1(N2CC2C#N)CCCCC1 (stereo not drawn) [Example 32, 1,1-bis-[2-cyanoaziridinyl-(1)]-cyclohexane] | 150 | 150 |  |
